Here are results for 33 compounds from ChEMBL document CHEMBL3217438, “Diphenylbutylpiperidine-based cell autophagy inducers: Design, synthesis and SAR studies” (Medchemcomm, 2011).

The assay in a line: Induction of autophagy in human H4-LC3 cells assessed as number of spots of LC3-GFP after 4 hrs by DAPI staining. Format: functional, cell-based.

In the case of `O=[N+]([O-])c1ccc2c(cnn2C2CCN(CCCC(c3ccc(F)cc3)c3ccc(F)cc3)CC2)c1`, the concentration giving a half-maximal response (EC50) amounted to 4.5 µM.

For `Fc1ccc(C(CCCN2CCC(c3noc4cc(F)ccc34)CC2)c2ccc(F)cc2)cc1`, the concentration giving a half-maximal response (EC50) is over 50 µM.

For the compound `O=C1Nc2ccccc2CN1C1CCN(CCCC(c2ccc(F)cc2)c2ccc(F)cc2)CC1`, the half-maximal effective concentration (EC50) is 1.3 µM.

For the compound `FC(F)(F)c1ccc(C(CCCN2CCC(N3CCc4ccccc43)CC2)c2ccc(C(F)(F)F)cc2)cc1`, the EC50 came to 1.2 µM.

Take `Fc1ccc(C(CCCN2CCC(n3cnc4ccccc43)CC2)c2ccc(F)cc2)cc1`: the EC50 stood at 4.2 µM.

`O=C1Oc2ccccc2CN1C1CCN(CCCC(c2ccc(F)cc2)c2ccc(F)cc2)CC1`: the EC50 is 4.1 µM.

For `O=C1c2ccccc2C(=O)N1C1CCN(CCCC(c2ccc(F)cc2)c2ccc(F)cc2)CC1`, the EC50 was over 50 µM.

`FC(F)(F)c1ccc(C(CCCN2CCC(c3c[nH]c4ccccc34)CC2)c2ccc(C(F)(F)F)cc2)cc1`: the EC50 was 0.45 µM.

`Fc1ccc(C(CCCN2CCC(c3nc4ccccc4o3)CC2)c2ccc(F)cc2)cc1`: the EC50 came to 11.2 µM.

For the compound `O=S1(=O)Nc2ccccc2CN1C1CCN(CCCC(c2ccc(F)cc2)c2ccc(F)cc2)CC1`, the EC50 is 21.7 µM.

On to `Fc1ccc(C(CCCN2CCC(c3c[nH]c4ccccc34)CC2)c2ccc(F)cc2)cc1`, for which the concentration for a half-maximal effect (EC50) came out at 6.4 µM.

As to `O=C1NC2(CCN(CCCC(c3ccc(F)cc3)c3ccc(F)cc3)CC2)Nc2ccccc21`, the EC50 was 1.9 µM.

Regarding `FC(F)(F)c1ccc(C(CCCN2CCC(N3Cc4ccccc4C3)CC2)c2ccc(C(F)(F)F)cc2)cc1`, the EC50 is 1.5 µM.

In the case of `Fc1ccc(C(CCCN2CCN(c3nsc4ccccc34)CC2)c2ccc(F)cc2)cc1`, the EC50 was 10.1 µM.

Consider `Fc1ccc(C(CCCN2CCC(c3nc4ccccc4[nH]3)CC2)c2ccc(F)cc2)cc1`, for which the EC50 was 4 µM.

As to `Fc1ccc(C(CCCN2CCC(N3Cc4ccccc4C3)CC2)c2ccc(F)cc2)cc1`, the half-maximal effective concentration (EC50) is 4.1 µM.

Turning to `Fc1ccc(C(CCCN2CCC(N3CCc4ccccc43)CC2)c2ccc(F)cc2)cc1`, the EC50 came to 3.8 µM.

With `O=c1oc2ccccc2n1C1CCN(CCCC(c2ccc(F)cc2)c2ccc(F)cc2)CC1`, the EC50 came to 8.2 µM.

As to `N#CC(CCCN1CCC(N2Cc3ccccc3C2)CC1)(c1ccccc1)c1ccccc1`, the EC50 turned out to be 7.1 µM.

For the compound `O=c1sc2ccccc2n1C1CCN(CCCC(c2ccc(F)cc2)c2ccc(F)cc2)CC1`, the EC50 was over 50 µM.

With `Fc1ccc(C(CCCN2CCC(c3nc4ccccc4s3)CC2)c2ccc(F)cc2)cc1`, the 50% effective concentration (EC50) is 10.6 µM.

For the compound `Fc1ccc(C(CCCN2CCC(n3nnc4ccccc43)CC2)c2ccc(F)cc2)cc1`, the concentration for a half-maximal effect (EC50) is over 50 µM.

Consider `Fc1ccc(C(CCCN2CCC(n3nc4ccccc4n3)CC2)c2ccc(F)cc2)cc1`, for which the concentration giving a half-maximal response (EC50) is over 50 µM.

For the compound `O=c1[nH]c2ccccc2c(=O)n1C1CCN(CCCC(c2ccc(F)cc2)c2ccc(F)cc2)CC1`, the concentration giving a half-maximal response (EC50) stood at 2.8 µM.

For `O=c1c2ccccc2nnn1C1CCN(CCCC(c2ccc(F)cc2)c2ccc(F)cc2)CC1`, the EC50 was determined as 7.8 µM.

Turning to `O=c1[nH]c2ccccc2n1C1CCN(CCCC(c2ccc(F)cc2)c2ccc(F)cc2)CC1` [PIMOZIDE], the half-maximal effective concentration (EC50) is 5.4 µM.

`N#CC(CCCN1CCC(c2c[nH]c3ccccc23)CC1)(c1ccccc1)c1ccccc1`: the EC50 is 2.6 µM.

Consider `Fc1ccc(C(CCCN2CCC(N3CCc4ccccc4C3)CC2)c2ccc(F)cc2)cc1`, for which the EC50 was 6 µM.

Take `N#CC(CCCN1CCC(N2CCc3ccccc32)CC1)(c1ccccc1)c1ccccc1`: the EC50 was determined as 4.5 µM.

Take `N#CC(CCCN1CCC(c2nc3ccccc3[nH]2)CC1)(c1ccccc1)c1ccccc1`: the concentration for a half-maximal effect (EC50) is 8.5 µM.

Consider `O=C1NCc2ccccc2N1C1CCN(CCCC(c2ccc(F)cc2)c2ccc(F)cc2)CC1`, for which the EC50 was 2.9 µM.

`FC(F)(F)c1ccc(C(CCCN2CCC(c3nc4ccccc4[nH]3)CC2)c2ccc(C(F)(F)F)cc2)cc1`: the concentration for a half-maximal effect (EC50) stood at 0.9 µM.

Turning to `O=S1(=O)NCc2ccccc2N1C1CCN(CCCC(c2ccc(F)cc2)c2ccc(F)cc2)CC1`, the EC50 was found to be 10.2 µM.

By EC50 is commonly meant the concentration at which the effect is half-maximal.
